Reference: the supplement of paper PMC7661543
± gives the standard deviation of the averaged measurements.

Test system: ZR-75-1
Experiment: relative cell number vs DMSO control (72 h) (% of DMSO); higher = less growth inhibition (more cells)
Details: sgRNA knockout: sgNT, 100 nM
Experimental: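 QMAP-Seq: a pool of 5 breast cancer cell lines (ZR-75-1, SKBR3, HCC-38, MDA-MB-231, BT-20), each carrying 12 doxycycline-inducible Cas9 sgRNA perturbations (11 knockouts plus non-targeting sgNT), was treated with compounds for 72 h at four 10-fold doses (10 nM-10 uM or 1 nM-1 uM range). Barcodes were amplified and sequenced, and cell number was interpolated from 293T spike-in standard curves. The result is expressed as % of the median of DMSO wells. Two biological replicates.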

| SMILES | relative cell number |
| --- | --- |
| Cn1nnc2c(C(N)=O)ncn2c1=O [Temozolomide] | 103 ± 16 |
| CN(C)C(=O)c1ccc(S(=O)(=O)c2ccc(NC(=O)[C@@](C)(O)C(F)(F)F)c(Cl)c2)cc1 [AZD7545] | 116 ± 53 |
| CC(C)(C#N)c1ccc(N2C(=O)OCc3cnc4ccc(-c5cnc6ccccc6c5)cc4c32)cc1 | 116 ± 19 |
| CC(C)C[C@@H](C=O)NC(=O)[C@H](CC(C)C)NC(=O)[C@H](CC(C)C)NC(=O)OCc1ccccc1 [MG132] | 97.1 ± 11 |
| C[C@@H](Oc1cc(-c2cnn(C3CCNCC3)c2)cnc1N)c1c(Cl)ccc(F)c1Cl [Crizotinib] | 116 ± 13 |
| CN1CCN(c2ccc(C(=O)Nc3n[nH]c4ccc(Cc5cc(F)cc(F)c5)cc34)c(NC3CCOCC3)c2)CC1 [Entrectinib] | 73 ± 13 |
| CC(C)(C)c1cnc(CSc2cnc(NC(=O)C3CCNCC3)s2)o1 [SNS032] | 85.6 ± 9.4 |
| Nc1ccn([C@@H]2O[C@H](CO)[C@@H](O)C2(F)F)c(=O)n1 [Gemcitabine] | 26.4 ± 0.51 |
| CCCS(=O)(=O)Nc1ccc(F)c(C(=O)c2c[nH]c3ncc(Cl)cc23)c1F [PLX4720] | 96.7 ± 15 |
| CC[C@H](Nc1ncnc2[nH]cnc12)c1nc2cccc(F)c2c(=O)n1-c1ccccc1 [CAL101] | 95.6 ± 7.7 |
| COc1nc(N)nc2c1ncn2[C@@H]1O[C@H](CO)[C@@H](O)[C@@H]1O [Nelarabine] | 74.6 ± 23 |
| COc1cc(-n2c(=S)[nH]c3ccccc3c2=O)c(Cl)cc1Cl [Mdivi1] | 77.9 ± 7.1 |
| CCOC(=O)c1ccc(N2NC(=O)C(=Cc3ccc([N+](=O)[O-])o3)C2=O)cc1 [PYR41] | 72.9 ± 28 |

Same assay, conditions: sgRNA knockout: sgNT, 1000 nM

| SMILES | relative cell number |
| --- | --- |
| CC(C)(C#N)c1cc(Cn2cncn2)cc(C(C)(C)C#N)c1 [Anastrozole] | 120 ± 17 |
| COC(=O)[C@]12CCC(C)(C)C[C@H]1[C@H]1C(=O)C=C3[C@@]4(C)C=C(C#N)C(=O)C(C)(C)[C@@H]4CC[C@@]3(C)[C@]1(C)CC2 [BardoxoloneMethyl] | 14.3 ± 2.1 |
| Cc1sc2c(c1C)C(c1ccc(Cl)cc1)=N[C@@H](CC(=O)OC(C)(C)C)c1nnc(C)n1-2 [(+)-JQ1] | 86.2 ± 21 |
| CCOC(=O)CCNc1cc(N2CCc3ccccc3CC2)nc(-c2ccccn2)n1 [GSKJ4] | 110 ± 7.2 |
| O=C1NC(=O)/C(=C/c2ccc3nccc(-c4ccncc4)c3c2)S1 | 99 ± 38 |
| N#Cc1ccc(C(c2ccc(C#N)cc2)n2cncn2)cc1 [Letrozole] | 60.6 ± 7.9 |
| CC(C)n1c(/C=C/C(O)CC(O)CC(=O)O)c(-c2ccc(F)cc2)c2ccccc21 (stereo not given) [Fluvastatin] | 62.6 ± 22 |
| Cn1nnc2c(C(N)=O)ncn2c1=O [Temozolomide] | 81.7 ± 5.9 |
| CN(C)C(=O)c1ccc(S(=O)(=O)c2ccc(NC(=O)[C@@](C)(O)C(F)(F)F)c(Cl)c2)cc1 [AZD7545] | 91.8 ± 25 |
| CC(C)(C#N)c1ccc(N2C(=O)OCc3cnc4ccc(-c5cnc6ccccc6c5)cc4c32)cc1 | 55.1 ± 1.7 |
| CC(C)C[C@@H](C=O)NC(=O)[C@H](CC(C)C)NC(=O)[C@H](CC(C)C)NC(=O)OCc1ccccc1 [MG132] | 24.7 ± 3.3 |
| C[C@@H](Oc1cc(-c2cnn(C3CCNCC3)c2)cnc1N)c1c(Cl)ccc(F)c1Cl [Crizotinib] | 34.1 ± 13 |
| CN1CCN(c2ccc(C(=O)Nc3n[nH]c4ccc(Cc5cc(F)cc(F)c5)cc34)c(NC3CCOCC3)c2)CC1 [Entrectinib] | 85.7 ± 8.3 |
| CC(C)(C)c1cnc(CSc2cnc(NC(=O)C3CCNCC3)s2)o1 [SNS032] | 9.44 ± 2.4 |
| Nc1ccn([C@@H]2O[C@H](CO)[C@@H](O)C2(F)F)c(=O)n1 [Gemcitabine] | 33.9 ± 6 |
| CCCS(=O)(=O)Nc1ccc(F)c(C(=O)c2c[nH]c3ncc(Cl)cc23)c1F [PLX4720] | 123 ± 22 |
| CC[C@H](Nc1ncnc2[nH]cnc12)c1nc2cccc(F)c2c(=O)n1-c1ccccc1 [CAL101] | 84.5 ± 3.2 |
| COc1nc(N)nc2c1ncn2[C@@H]1O[C@H](CO)[C@@H](O)[C@@H]1O [Nelarabine] | 81.7 ± 5.5 |
| COc1cc(-n2c(=S)[nH]c3ccccc3c2=O)c(Cl)cc1Cl [Mdivi1] | 80.6 ± 2.8 |
| CCOC(=O)c1ccc(N2NC(=O)C(=Cc3ccc([N+](=O)[O-])o3)C2=O)cc1 [PYR41] | 100 ± 1.6 |

Same assay, conditions: sgRNA knockout: sgNT, 10000 nM

| SMILES | relative cell number |
| --- | --- |
| COC(=O)[C@]12CCC(C)(C)C[C@H]1[C@H]1C(=O)C=C3[C@@]4(C)C=C(C#N)C(=O)C(C)(C)[C@@H]4CC[C@@]3(C)[C@]1(C)CC2 [BardoxoloneMethyl] | 5.42 ± 4.3 |
| Cc1sc2c(c1C)C(c1ccc(Cl)cc1)=N[C@@H](CC(=O)OC(C)(C)C)c1nnc(C)n1-2 [(+)-JQ1] | 49.4 ± 1.2 |
| CCOC(=O)CCNc1cc(N2CCc3ccccc3CC2)nc(-c2ccccn2)n1 [GSKJ4] | 33.4 ± 1.8 |
| O=C1NC(=O)/C(=C/c2ccc3nccc(-c4ccncc4)c3c2)S1 | 38.6 ± 7.8 |
| CC(C)n1c(/C=C/C(O)CC(O)CC(=O)O)c(-c2ccc(F)cc2)c2ccccc21 (stereo not given) [Fluvastatin] | 78.7 ± 1.4 |
| Cn1nnc2c(C(N)=O)ncn2c1=O [Temozolomide] | 86.6 ± 3.4 |
| CN(C)C(=O)c1ccc(S(=O)(=O)c2ccc(NC(=O)[C@@](C)(O)C(F)(F)F)c(Cl)c2)cc1 [AZD7545] | 42.7 ± 5.5 |
| CC(C)(C#N)c1ccc(N2C(=O)OCc3cnc4ccc(-c5cnc6ccccc6c5)cc4c32)cc1 | 38.4 ± 14 |
| CC(C)C[C@@H](C=O)NC(=O)[C@H](CC(C)C)NC(=O)[C@H](CC(C)C)NC(=O)OCc1ccccc1 [MG132] | 6.78 ± 1.8 |
| C[C@@H](Oc1cc(-c2cnn(C3CCNCC3)c2)cnc1N)c1c(Cl)ccc(F)c1Cl [Crizotinib] | 14.6 ± 0.35 |
| CC(C)(C)c1cnc(CSc2cnc(NC(=O)C3CCNCC3)s2)o1 [SNS032] | 28.7 ± 4 |
| Nc1ccn([C@@H]2O[C@H](CO)[C@@H](O)C2(F)F)c(=O)n1 [Gemcitabine] | 30.5 ± 2.7 |
| CCCS(=O)(=O)Nc1ccc(F)c(C(=O)c2c[nH]c3ncc(Cl)cc23)c1F [PLX4720] | 173 ± 42 |
| CC[C@H](Nc1ncnc2[nH]cnc12)c1nc2cccc(F)c2c(=O)n1-c1ccccc1 [CAL101] | 72 ± 15 |
| COc1nc(N)nc2c1ncn2[C@@H]1O[C@H](CO)[C@@H](O)[C@@H]1O [Nelarabine] | 109 ± 7.7 |
| COc1cc(-n2c(=S)[nH]c3ccccc3c2=O)c(Cl)cc1Cl [Mdivi1] | 41.5 ± 26 |
| CCOC(=O)c1ccc(N2NC(=O)C(=Cc3ccc([N+](=O)[O-])o3)C2=O)cc1 [PYR41] | 97.4 ± 40 |
